Results on 24 compounds are retold here after article PMC10269678, “Identification of Fungus-Derived Natural Products as New Antigiardial Scaffolds” (Microbiology Spectrum, 2023).

Like-named read-outs stand apart in the source and are kept apart here.

Test [1] has as its system G. lamblia strain CBG99. The test can be described thus: G. lamblia CBG99 luciferase reporter trophozoite growth assay. It counts as cell-based, Giardia lamblia. The conditions noted are these: for inhibition at 10 µM: read-out: % inhibition at 10 μM; for times more potent than metronidazole: relative to metronidazole EC50 of 5 μM; for % inhibition at 10 μM: pNP tested at 10 μM, G. lamblia growth, primary screen. From the text:
For in vitro Giardia assays, we used a click beetle green (CBG99) luciferase-based reporter system that was developed for quantitative bioluminescence readouts of growth in trophozoites ([13][–][15]). The CBG99 reporter gene is under the control of the glutamate dehydrogenase promoter, which is highly expressed in the G. lamblia trophozoite stage, making it useful for monitoring growth even in mouse infection models ([15]). The compound library was obtained from the Natural Products Discovery Group (NPDG) at the University of Oklahoma ([16]). A combination of 755 purified natural products (pNPs) and 1,056 fungal extracts were screened against G. lamblia strain CBG99. Hits were defined as samples that caused ≥50% growth inhibition activity at 10 μM (pNPs) or 5 μg/mL (extracts). […] Only 2 were considered false positives (EC50 > 10 μM) (Table 2).
Background: A reporter such as luciferase makes a cellular process visible.

Test [2] has as its system G. lamblia strain CBG99. Further details: method as in PMID 26324270. The conditions noted are these: cited from earlier work.
Where [3] appears, read: Giardia duodenalis, read-out: EC50 ± SD (μM).
Setting [4] is: Giardia duodenalis, read-out: EC50 against G. lamblia trophozoite.
The mark [5] stands for this setting: G. lamblia trophozoite growth in vitro, Table 2, read-out: EC50 ± SD.

Take `COC1=CC(=O)CC(C)C12Oc1cc(OC)cc(OC)c1C2=O` (centres unmarked) [J16A, Dechlorogriseofulvin]: the concentration giving a half-maximal response (EC50) in test [1] (Giardia duodenalis, read-out: Giardia EC50 (μM)) was greater than 15 µM.
`CC(C)C1NC(=O)C(CC2(O)c3ccccc3N3C(=O)C(C)(C)NC32)n2c1nc1ccccc1c2=O` (stereo not drawn) [J16E, epi-Fiscalin C]: the EC50 in test [1] (Giardia duodenalis) came out at 0.555 µM.
Still for that read-out and setting: next, `COC1=CC(=O)C[C@@H](C)[C@]12Oc1c(Cl)c(OC)cc(OC)c1C2=O` [J16K, Griseofulvin]: 7.88 µM; `CC1(C)C(=O)N2c3ccccc3C3(CC(n4cnc5ccccc5c4=O)C(=O)O3)C2N1O` (centres unmarked) [J16L, Tryptoquivaline L]: 7.15 µM.
On the same count and under the same terms, then `CC(C)=C1NC(=O)C(CC2(O)c3ccccc3N3C(=O)C(C)(C)NC32)n2c1nc1ccccc1c2=O` (centres unmarked) [J16M, Quinadoline A], with 3.29 µM; and `COC12OC1(C13OC1(OC)C(=O)c1cc4cc(C)oc(=O)c4c(O)c1C3O)C(O)c1c(cc3cc(C)oc(=O)c3c1O)C2=O` (centres unmarked) [J16R, Xanthoepocin], with 0.146 µM.
Still for that read-out and setting: next, `CC(C)C(=O)c1nc2ccccc2c(=O)n1C1CC2(OC1=O)c1ccccc1N1C(=O)C(C)(C)NC12` (centres unmarked) [J36B]: 0.044 µM; `CC(=O)ON1C2N(C(=O)C1(C)C)c1ccccc1C21CC(n2c(C(O)C(C)C)nc3ccccc3c2=O)C(=O)O1` (centres unmarked) [J36C, isotryptoquivaline]: 0.84 µM.
Turning to `N[C@H](C(=O)O)[C@@H]1CC(Cl)=NO1` [NPDG 120071, Acivicin], the inhibition at 10 µM in test [1] (Giardia duodenalis) is 85%. For the same compound, the EC50 in test [1] (setting [3]) is greater than 10 µM.
The corresponding values for `COC(=O)C1=C[C@@H](O)[C@@H](O)[C@@H](O)[C@H]1N1C[C@H](O)[C@@H](OC(C)=O)[C@H]1Cc1ccc(OC)cc1` [NPDG 150029, Anisomycin 1-N-pericosine] are 86% and 3.32 ± 0.01 µM.
As for `CO[C@@H]1[C@H](OC(=O)\C=C/C=C/C=C/C=C/C(=O)O)CC[C@]2(CO2)[C@H]1[C@@]1(C)O[C@@H]1CC=C(C)C` [NPDG 150049, cis-Fumagillin], the inhibition at 10 µM in test [1] (Giardia duodenalis) was determined as 85%. Besides, the EC50 in test [1] (setting [4]) was less than 0.2 µM; in test [1] (setting [3]), 0.03 ± 0.02 µM. Also, the “times more potent than metronidazole” value in test [1] is greater than 25 times.
`COC(=O)c1c(Sc2c(O)cc3oc4cc(C)cc(O)c4c(=O)c3c2C(=O)OC)c(O)cc(OC)c1C(=O)c1c(O)cc(C)cc1O` [NPDG 150051, Dioschrin]: the EC50 in test [1] (setting [5]) turned out to be 3.21 ± 0.61 µM. In test [1], the “% inhibition at 10 μM” value was 82%.
The corresponding values for `CC(=O)OC(C)(C)[C@H]1O[C@H]2CC[C@@]3(C)[C@@](O)(CC[C@H]4Cc5c([nH]c6ccccc56)[C@@]43C)C2=CC1=O` [NPDG 150113, 1′-O-acetylpaxilline] are 3.4 µM and 82%.
Turning to `C/C=C/C=C/C=C/C(=O)O[C@@H]1C=C2COC(=O)[C@]2(O)[C@@]2(C)CCCC(C)(C)[C@H]12` [NPDG 150125, RES-1149-2], the inhibition at 10 µM in test [1] (Giardia duodenalis) was 88%. Also, the EC50 in test [1] (setting [4]) is less than 0.2 µM; in test [1] (setting [3]), 0.18 ± 0.11 µM. Besides, the “times more potent than metronidazole” value in test [1] is listed as greater than 25 times.
`C/C=C(\C)c1cc(OC)c(C)c2c1Oc1c(CO)c(O)cc(/C(C)=C/C(=O)O)c1C(=O)O2` [NPDG 150134, Auranticin A]: the inhibition at 10 µM in test [1] (Giardia duodenalis) is 89%. Further, in test [1] (setting [3]), the EC50 was determined as 4.44 ± 3.02 µM.
Regarding `COC1C(OC(=O)C=CC=CC=CC=CC(=O)O)CCC(O)(CCl)C1C1(C)OC1CC=C(C)C` (centres unmarked) [NPDG 150137], in test [1] (Giardia duodenalis), the inhibition at 10 µM came out at 90%. The EC50 in test [1] (setting [4]) was less than 0.2 µM; in test [1] (setting [3]) it was 0.006 µM. Further, the “times more potent than metronidazole” value in test [1] is reported as greater than 25 times.
In the case of `C=C1CC[C@@H](OC(=O)/C=C/C=C/C=C/C=C/C(=O)O)[C@@H](OC)[C@H]1[C@@]1(C)O[C@@H]1CC=C(C)C` [NPDG 150138, Sch 528647], in test [1] (setting [5]), the EC50 was found to be 3.09 ± 0.16 µM. The “% inhibition at 10 μM” value in test [1] worked out at 88%.
In the case of `COC1=CC(=O)c2c(O)c(C)c(CC(C)=O)c(O)c2C1=O` [NPDG 160012, Javanicin], the inhibition at 10 µM in test [1] (Giardia duodenalis) was 89%. Also, the EC50 in test [1] (setting [3]) is 1.26 ± 1.01 µM.
The corresponding values for `CC(=O)C1=C(O)[C@@H]2[C@H]3c4c[nH]c5cccc(c45)C[C@H]3C(C)(C)N2C1=O` [NPDG 170027, Cyclopiazonic acid] are 81% and 1.3 ± 0.71 µM.
The matching figures for `CC(=O)O[C@H]1C[C@@]2(C)[C@@H](CC[C@H]3[C@@]4(C)C=CC(=O)[C@@H](C)[C@@H]4[C@H](OC(C)=O)C(=O)[C@@]32C)/C1=C(\CCC=C(C)C)C(=O)O` [NPDG 170028, Helvolic acid]: 83% and 3.36 ± 0.14 µM.
Turning to `CO[C@@H]1[C@H](OC(=O)/C=C/C=C/C=C/C=C/C(=O)O)CC[C@]2(CO2)[C@H]1[C@@]1(C)O[C@@H]1CC=C(C)C` [NPDG 170035, Fumagillin], in test [1] (Giardia duodenalis), the inhibition at 10 µM amounted to 88%. In addition, the EC50 is less than 0.2 µM in test [1] (setting [4]) and 0.004 µM in test [1] (setting [3]). For the same compound, the “times more potent than metronidazole” value in test [1] is greater than 25 times.
`C[C@@H]1N[C@H]2N(C1=O)c1ccccc1[C@@]21C[C@@H]2C(=O)N[C@@](C)(O1)c1nc3ccccc3c(=O)n12` [NPDG 170098, Fumiquinazoline C]: in test [1] (setting [5]), the EC50 came to 6.92 ± 8.5 µM. Moreover, the “% inhibition at 10 μM” value in test [1] stood at 82%.
Turning to `Cc1ncc([N+](=O)[O-])n1CCO` [metronidazole], the EC50 in test [2] was 5 µM.
Turning to Perfraglin A [NPDG 120038], in test [1] (setting [5]), the EC50 is greater than 10 µM. In addition, the “% inhibition at 10 μM” value in test [1] was determined as 75%.

A word on the EC50: it is the concentration giving half of the maximal effect. By inhibition is commonly meant the percentage by which the read-out fell short of the control. One may read the % inhibition as the relative decrease from the control value, in per cent.
